According to US4374147A, “13-Oxo-monic acid esters useful as antibacterial and antimycoplasmal agents” (Beecham Group Limited, priority 1980, dated 1983):
Converted amounts (≈) assume the structure as drawn. Like-named read-outs stand apart in the source and are kept apart here.

Key:
Assay type in all cases: cell-based
Bacillus subtilis 6633 = test: MIC by serial dilution in nutrient agar (human bacteria, Table 1); details: 5% "chocolated" horse blood
Strep.faecalis I = test: as above; details: Enterococcus faecalis, 5% "chocolated" horse blood
[1] = test system: Corynebacterium xerosis 9755; test: as above; details: 5% "chocolated" horse blood
Sarcina lutea 8340 = test: as above; details: Micrococcus luteus, 5% "chocolated" horse blood
P. mirabilis 889 = test: as above; details: Proteus mirabilis, 5% "chocolated" horse blood
[2] = test system: Haemophilus influenzae Q1; test: as above
E.coli NCTC 10418 [3] = test: as above; details: Escherichia coli, NCTC10418, 5% "chocolated" horse blood
Strep.pyogenes C 2761 = test: as above; details: Streptococcus pyogenes, C2761, 5% "chocolated" horse blood
[4] = test system: Pasteurella multocida 1633; test: as above; details: Pasteurella multocida, 1633
[5] = test system: M.suipneumoniae J2206/183b; test: Anti-mycoplasmal MIC by serial dilution in Friis broth (Table 3); details: Mesomycoplasma hyopneumoniae, read-out: in vitro MIC
Description: (§1) *Determined by serial dilution in Friis broth (Friis N.F. 1975. Nord. Vet
(§2) Med. 27, 337) in microtiter plates using a modification of the metabolite
(§3) inhibition test (TaylorRobinson D. 1967. Postgrad. Med. J., 43, suppl.

M.pneumoniae 427a = test: as above; details: Mycoplasmoides pneumoniae, read-out: in vitro MIC
Description: as §1, §2, §3

M.dispar NCTC 10125 = test: as above; details: read-out: in vitro MIC
Description: as §1, §2, §3

Ps. aeruginosa 10662 = test: MIC by serial dilution in nutrient agar (human bacteria, Table 1); details: Pseudomonas aeruginosa, 5% "chocolated" horse blood
Staph.aureus Russell = test: as above; details: Staphylococcus aureus; Staph.aureus Russell; nutrient agar, 5% "chocolated" horse blood; read-out: MIC
Strep.pyogenes B 2788 = test: as above; details: Streptococcus pyogenes, B2788, 5% "chocolated" horse blood
Strep.pyogenes A 64/848 = test: as above; details: Streptococcus pyogenes, A64/848, 5% "chocolated" horse blood
E.coli ESS = test: as above; details: Escherichia coli, 5% "chocolated" horse blood
Staph.aureus Oxford [6] = test: as above; details: Staphylococcus aureus; Staph.aureus Oxford; nutrient agar, 5% "chocolated" horse blood; read-out: MIC
K. aerogenes A = test: as above; details: Klebsiella aerogenes, 5% "chocolated" horse blood
[7] = test system: Haemophilus influenzae Wy21; test: as above; details: 5% "chocolated" horse blood
[8] = test system: Neisseria flavesceus 8263; test: MIC by serial dilution in nutrient agar (human bacteria, Table 1, footnote a)
Description: | ^ a Neisseria flavesceus 8263

[9] = test system: Neisseria catarrhalis 1502; test: MIC by serial dilution in nutrient agar (human bacteria, Table 1); details: 5% "chocolated" horse blood
S.dublin S7 = test: MIC by agar dilution (veterinary bacteria, Table 2); details: Salmonella enterica, diagnostic sensitivity test agar, 24 hours, 37° C.
Description: (§4) The MIC values were determined by agar dilution using diagnostic sensitivity test agar (Oxoid) using a multipoint inoculator delivering 0.001 ml of an inoculum adjusted to give 10^7 -10^8 organisms per ml and read after 24 hours incubation at 37° C.

Strep.dysgalactiae SPD1 = test: as above; details: Streptococcus dysgalactiae, diagnostic sensitivity test agar, 24 hours, 37° C.
Description: as §4

S.typhimurium S18 = test: as above; details: Salmonella enterica, diagnostic sensitivity test agar, 24 hours, 37° C.
Description: as §4

[10] = test system: Staph.aureus 152 (pen sens); test: as above; details: Staphylococcus aureus, diagnostic sensitivity test agar, 24 hours, 37° C.
Description: as §4

Past.multocida PA1 = test: as above; details: Pasteurella multocida, diagnostic sensitivity test agar, 24 hours, 37° C.
Description: as §4

[11] = test system: Strep.suis (group D) SPS11; test: as above; details: Streptococcus suis, diagnostic sensitivity test agar, 24 hours, 37° C.
Description: as §4

B. subtilis ATCC 6633 = test: as above; details: Bacillus subtilis, ATCC6633, diagnostic sensitivity test agar, 24 hours, 37° C.
Description: as §4

[12] = test system: Corynebacterium pyogenes CY1; test: as above; details: Trueperella pyogenes, diagnostic sensitivity test agar, 24 hours, 37° C.
Description: as §4

Bord.bronchiseptica BO8 = test: as above; details: Bordetella bronchiseptica, diagnostic sensitivity test agar, 24 hours, 37° C.
Description: as §4

E.coli NCTC 10418 [13] = test: as above; details: Escherichia coli, NCTC10418, diagnostic sensitivity test agar, 24 hours, 37° C.
Description: as §4

Past.haemolytica PA5 = test: as above; details: Mannheimia haemolytica, diagnostic sensitivity test agar, 24 hours, 37° C.
Description: as §4

Strep.uberis SPU1 = test: as above; details: Streptococcus uberis, diagnostic sensitivity test agar, 24 hours, 37° C.
Description: as §4

Staph.aureus Oxford [14] = test: as above; details: Staphylococcus aureus, diagnostic sensitivity test agar, 24 hours, 37° C.
Description: as §4

E.coli E1 = test: as above; details: Escherichia coli, diagnostic sensitivity test agar, 24 hours, 37° C.
Description: as §4

Bord.bronchiseptica BO9 = test: as above; details: Bordetella bronchiseptica, diagnostic sensitivity test agar, 24 hours, 37° C.
Description: as §4

[15] = test system: Erysipelothrix rhusiopathiae NCTC 8163; test: as above; details: NCTC8163, diagnostic sensitivity test agar, 24 hours, 37° C.
Description: as §4

[16] = test system: Staph.aureus B4 (pen resis); test: as above; details: Staphylococcus aureus, diagnostic sensitivity test agar, 24 hours, 37° C.
Description: as §4

Past.multocida PA2 = test: as above; details: Pasteurella multocida, diagnostic sensitivity test agar, 24 hours, 37° C.
Description: as §4

Strep.agalactiae SPA1 = test: as above; details: Streptococcus agalactiae, diagnostic sensitivity test agar, 24 hours, 37° C.
Description: as §4

Strep.pneumoniae CN33 = test: MIC by serial dilution in nutrient agar (human bacteria, Table 1); details: Streptococcus pneumoniae, 5% "chocolated" horse blood

With `COC(=O)CCCCCCCCOC(=O)/C=C(\C)CC1OCC(CC2OC2C(C)C(C)=O)C(O)C1O` (stereo not shown) [Example 1, Methyl 13-Oxopseudomonate A] the MIC (Bacillus subtilis 6633) was 0.5 µg/mL (≈ 0.975 µM), the MIC (Strep.faecalis I) was greater than 200 µg/mL and the MIC [1] was greater than 200 µg/mL. It also gave an MIC (Sarcina lutea 8340) greater than 200 µg/mL, an MIC (P. mirabilis 889) greater than 200 µg/mL and an MIC ([2]; Haemophilus influenzae Q1, nutrient agar, 5% "chocolated" horse blood, read-out: MIC) of 0.5 µg/mL (≈ 0.975 µM). For the same compound, the MIC (E.coli NCTC 10418 [3]) was greater than 200 µg/mL, the MIC (Strep.pyogenes C 2761) was 2 µg/mL (≈ 3.9 µM) and the MIC [4] was 1 µg/mL (≈ 1.95 µM). For the same compound, the MIC [5] was 62.5 µg/mL (≈ 122 µM), the MIC (M.pneumoniae 427a) was 250 µg/mL (≈ 488 µM) and the MIC (M.dispar NCTC 10125) was 0.5 µg/mL (≈ 0.975 µM). For the same compound, the MIC (Ps. aeruginosa 10662) was greater than 200 µg/mL, the MIC (Staph.aureus Russell) was 2 µg/mL (≈ 3.9 µM) and the MIC (Strep.pyogenes B 2788) was 10 µg/mL (≈ 19.5 µM). The MIC (Strep.pyogenes A 64/848) was 0.5 µg/mL (≈ 0.975 µM), the MIC (E.coli ESS) was 2 µg/mL (≈ 3.9 µM) and the MIC (Staph.aureus Oxford [6]) was 0.5 µg/mL (≈ 0.975 µM). It also gave an MIC (K. aerogenes A) greater than 200 µg/mL, an MIC [7] of 0.5 µg/mL (≈ 0.975 µM) and an MIC [8] of 1 µg/mL (≈ 1.95 µM).

For `CC(=O)C(C)C1OC1CC1COC(C/C(C)=C/C(=O)OCCCCCCCCC(=O)O)C(O)C1O` (stereo not shown) [Example 4, Sodium 13--Oxopseudomonate A], the MIC (Bacillus subtilis 6633) was 0.1 µg/mL, the MIC (Strep.faecalis I) was greater than 100 µg/mL and the MIC [1] was greater than 100 µg/mL. It also gave an MIC (Sarcina lutea 8340) greater than 100 µg/mL, an MIC (P. mirabilis 889) greater than 100 µg/mL and an MIC ([2]; Haemophilus influenzae, Q1) of 0.05 µg/mL. The MIC (E.coli NCTC 10418 [3]) was greater than 100 µg/mL, the MIC (Strep.pyogenes C 2761) was 0.5 µg/mL and the MIC [5] was 31.2 µg/mL. The MIC (M.pneumoniae 427a) was 250 µg/mL, the MIC (M.dispar NCTC 10125) was 3.9 µg/mL and the MIC [9] was 0.5 µg/mL. The MIC (Ps. aeruginosa 10662) was greater than 100 µg/mL, the MIC (Staph.aureus Russell) was 0.5 µg/mL and the MIC (Strep.pyogenes B 2788) was 1 µg/mL. For the same compound, the MIC (S.dublin S7) was greater than 80 µg/mL, the MIC (Strep.dysgalactiae SPD1) was 1.25 µg/mL and the MIC (S.typhimurium S18) was greater than 80 µg/mL. The MIC [10] was 1.25 µg/mL, the MIC (Past.multocida PA1) was 0.625 µg/mL and the MIC [11] was 20 µg/mL. For the same compound, the MIC (B. subtilis ATCC 6633) was greater than 80 µg/mL, the MIC [12] was greater than 80 µg/mL and the MIC (Bord.bronchiseptica BO8) was 80 µg/mL. It also gave an MIC (E.coli NCTC 10418 [13]) greater than 80 µg/mL, an MIC (Past.haemolytica PA5) of 10 µg/mL and an MIC (Strep.uberis SPU1) of 0.312 µg/mL. The MIC (Staph.aureus Oxford [14]) was 1.25 µg/mL, the MIC (E.coli E1) was greater than 80 µg/mL and the MIC (Bord.bronchiseptica BO9) was 80 µg/mL. The MIC [15] was greater than 80 µg/mL, the MIC [16] was 1.25 µg/mL and the MIC (Past.multocida PA2) was 0.625 µg/mL. It also gave an MIC (Strep.agalactiae SPA1) of 10 µg/mL, an MIC (Strep.pyogenes A 64/848) of 1 µg/mL and an MIC (E.coli ESS) of 2.5 µg/mL. The MIC (Staph.aureus Oxford [6]) was 0.2 µg/mL, the MIC (K. aerogenes A) was greater than 100 µg/mL and the MIC [7] was 0.1 µg/mL. For the same compound, the MIC (Strep.pneumoniae CN33) was 0.5 µg/mL.
